Data from paper PMC11579512, “Deoxybouvardin-glucoside induces apoptosis in non-small cell lung cancer cells by targeting EGFR/MET and AKT signaling pathway” (EXCLI Journal, 2024).

What was measured:
[1] = molecular target: T1, EGFR (Homo sapiens, UniProt P00533); assay: In vitro ADP-Glo kinase assay, EGFR; format: biochemical
T1 construct: purchased Promega
Experimental: Subsequently, each well was added with ADP-Glo reagent and incubated for another 40 min. After completion of the kinase reaction, each well was added with kinase activity detection reagent and then incubated for 30 min. Liquid was dispensed with I.DOT (Dispendix, Stuttgart, Germany). Luminescence was measured on a Centro LB 960 microplate luminometer (Berthold Technologies).

[2] = system: Bcl-2; assay: Immunoblot Bcl-2 in HCC827 and HCC827GR cells; format: cell-based, human; conditions: for BCl-2 protein Ratio: DBG 0 nM = 1.00
Experimental: (§1) HaCaT cells were grown in DMEM, whereas HCC827 and HCC827GR cells were grown in RPMI 1640. All culture media were supplemented with FBS (10 %) and P/S (1 %), and the cells were grown at 37 °C in 5 % CO2.
(§2) Cells were lysed in RIPA buffer, and protein concentration was determined using a Bio-Rad DC Protein Assay kit (Bio-Rad, Hercules, CA, USA). Protein samples from the cell lysates were resolved by sodium dodecyl sulfate-polyacrylamide gel electrophoresis and then transferred onto polyvinylidene fluoride membranes. The membranes were blocked with 3 % or 5 % skim milk and then incubated at 4 °C overnight with the indicated primary antibodies, followed by the corresponding horseradish peroxidase-conjugated secondary antibodies at RT for 2 h. Protein bands were visualized using western blotting luminol reagent solution and ImageQuant LAS 500 (GE Healthcare, Uppsala, Sweden). The density of the bands was quantified using ImageJ software (NIH, Bethesda, MD, USA).

[3] = system: p-AKT; assay: Immunoblot p-AKT with NAC pretreatment, HCC827 and HCC827GR cells; format: cell-based, human; conditions: for p-AKT protein Ratio: control = 1.00
Experimental: as §1, §2

[4] = system: HCC827 cells; assay: MTT viability after NAC pretreatment, HCC827; format: cell-based, human; conditions: for cell viability (relative to untreated = 100.00): HCC827
Experimental: All culture media were supplemented with FBS (10 %) and P/S (1 %), and the cells were grown at 37 °C in 5 % CO2.
The cells were treated with MTT and incubated for 2 h. The supernatants were removed, and the remaining formazan crystals were dissolved in DMSO before absorbance measurement at 570 nm using a Multiscan GO spectrophotometer (Thermo Fisher Scientific, Vantaa, Finland).

[5] = system: PARP; assay: Immunoblot PARP in HCC827 and HCC827GR cells; format: cell-based, human; conditions: for PARP protein Ratio: DBG 0 nM = 1.00
Experimental: as §1, §2

[6] = system: p-AKT (S473); assay: Western blot p-AKT (S473) in HCC827 and HCC827GR cells; format: cell-based, human; conditions: DBG 3, 6, 12 nM, 48 h
Experimental: as §1, §2

[7] = system: HCC827GR cells; assay: Intracellular ROS (Muse Oxidative Stress Kit), HCC827GR; format: cell-based, human; conditions: 48 h, control 16.69 %
Experimental: as §1
The levels of intracellular ROS were measured using a Muse™ Oxidative Stress Kit (MCH100111, Merck Millipore) in accordance with the manufacturer's instructions. The cells were incubated with a Muse™ Oxidative Stress Reagent working solution in the dark at 37 °C for 30 min. Intracellular ROS generation was measured using a Muse™ Cell Analyzer.

[8] = system: HCC827GR cells; assay: Cell cycle distribution (Muse, PI), HCC827GR; format: cell-based, human; conditions: 48 h
Experimental: as §1
Cell cycle distribution analysis was performed using a Muse™ Cell Cycle Kit (MCH100106, Merck Millipore, Billerica, MA) based on propidium iodide (PI) staining. The cells were collected, fixed in 70 % ethanol overnight at -20 °C, and then stained with a Muse™ Cell Cycle Reagent at RT for 30 min in the dark. The cell cycle distribution was measured using a Muse™ Cell Analyzer (Merck Millipore).

T1 sequence (P00533 25-1210): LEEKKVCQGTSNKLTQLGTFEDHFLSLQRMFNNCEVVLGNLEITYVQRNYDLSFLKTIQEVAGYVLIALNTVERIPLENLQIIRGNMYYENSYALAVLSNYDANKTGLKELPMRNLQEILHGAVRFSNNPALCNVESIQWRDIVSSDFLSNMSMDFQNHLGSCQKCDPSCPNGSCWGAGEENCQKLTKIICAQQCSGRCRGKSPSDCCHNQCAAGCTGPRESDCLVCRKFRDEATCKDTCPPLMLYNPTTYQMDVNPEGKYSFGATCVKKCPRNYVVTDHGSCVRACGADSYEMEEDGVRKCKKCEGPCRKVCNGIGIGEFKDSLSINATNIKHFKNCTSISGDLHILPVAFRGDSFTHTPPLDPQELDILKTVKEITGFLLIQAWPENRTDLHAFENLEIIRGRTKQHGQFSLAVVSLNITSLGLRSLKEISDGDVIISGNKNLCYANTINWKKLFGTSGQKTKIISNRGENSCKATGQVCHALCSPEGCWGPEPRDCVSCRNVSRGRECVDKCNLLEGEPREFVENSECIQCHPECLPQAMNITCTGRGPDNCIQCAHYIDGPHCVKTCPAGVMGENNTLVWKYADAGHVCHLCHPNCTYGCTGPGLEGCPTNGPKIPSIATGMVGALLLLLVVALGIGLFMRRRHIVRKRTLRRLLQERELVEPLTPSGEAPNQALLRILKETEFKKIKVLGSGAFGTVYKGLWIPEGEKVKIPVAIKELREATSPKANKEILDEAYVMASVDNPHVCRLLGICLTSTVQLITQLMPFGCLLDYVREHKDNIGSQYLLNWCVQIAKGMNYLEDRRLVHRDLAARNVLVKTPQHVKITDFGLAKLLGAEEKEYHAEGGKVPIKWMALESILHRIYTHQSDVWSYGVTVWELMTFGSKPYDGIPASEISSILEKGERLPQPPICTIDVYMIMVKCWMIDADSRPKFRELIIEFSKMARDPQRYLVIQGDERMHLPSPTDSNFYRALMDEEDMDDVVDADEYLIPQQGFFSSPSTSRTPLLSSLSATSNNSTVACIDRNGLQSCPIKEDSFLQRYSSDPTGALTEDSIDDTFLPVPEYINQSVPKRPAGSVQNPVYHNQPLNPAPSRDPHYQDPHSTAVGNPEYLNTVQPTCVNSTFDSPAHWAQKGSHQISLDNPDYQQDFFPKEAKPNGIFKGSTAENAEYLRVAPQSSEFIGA

COc1ccc(C[C@H]2C(=O)N[C@@H](C)C(=O)N(C)[C@H]3Cc4ccc(cc4)Oc4cc(ccc4O[C@@H]4O[C@H](CO)[C@@H](O)[C@H](O)[C@H]4O)C[C@@H](C(=O)N[C@H](C)C(=O)N[C@@H](C)C(=O)N2C)N(C)C3=O)cc1 [DBG, deoxybouvardin glucoside]
IC50 ([1]; ADP-Glo, EGFR 4 ng, RT, 60 min, luminescence, n=3): 7.23 nM
kinase activity, in words ([1]; DBG 3, 6, 12 nM): significantly inhibited
BCl-2 protein/actin ([2]; HCC827, DBG 3 nM, DBG 0 nM 0.55): 0.30
BCl-2 protein Ratio ([2]; HCC827, DBG 3 nM): 0.55
BCl-2 protein/actin ([2]; HCC827, DBG 6 nM, DBG 0 nM 0.55): 0.21
BCl-2 protein Ratio ([2]; HCC827, DBG 6 nM): 0.39
BCl-2 protein/actin ([2]; HCC827, DBG 12 nM, DBG 0 nM 0.55): 0.19
BCl-2 protein Ratio ([2]; HCC827, DBG 12 nM): 0.36
BCl-2 protein/actin ([2]; HCC827GR, DBG 3 nM, DBG 0 nM 0.66): 0.59
BCl-2 protein Ratio ([2]; HCC827GR, DBG 3 nM): 0.89
BCl-2 protein/actin ([2]; HCC827GR, DBG 6 nM, DBG 0 nM 0.66): 0.47
BCl-2 protein Ratio ([2]; HCC827GR, DBG 6 nM): 0.70
BCl-2 protein/actin ([2]; HCC827GR, DBG 12 nM, DBG 0 nM 0.66): 0.19
BCl-2 protein Ratio ([2]; HCC827GR, DBG 12 nM): 0.29
level of Bcl-2 ([2]; NSCLC cells, DBG): downregulated
p-AKT protein/actin ([3]; HCC827, DBG 12 nM, control 1.00): 0.39
p-AKT protein Ratio ([3]; HCC827, DBG 12 nM): 0.39
p-AKT protein/actin ([3]; HCC827, NAC 4 mM + DBG 12 nM, control 1.00): 0.42
p-AKT protein Ratio ([3]; HCC827, NAC 4 mM + DBG 12 nM): 0.42
p-AKT protein/actin ([3]; HCC827GR, DBG 12 nM, control 1.04): 0.30
p-AKT protein Ratio ([3]; HCC827GR, DBG 12 nM): 0.29
p-AKT protein/actin ([3]; HCC827GR, NAC 4 mM + DBG 12 nM, control 1.04): 0.17
p-AKT protein Ratio ([3]; HCC827GR, NAC 4 mM + DBG 12 nM): 0.16
DBG-decreased phosphorylation of AKT with NAC ([3]; NAC 4 mM pretreatment, DBG 48 h): did not change
cell viability (relative to untreated = 100.00) ([4]; DBG 12 nM, mean of 3): 45.66
cell viability (relative to untreated = 100.00) ([4]; DBG 12 nM, replicate 1): 44.99
cell viability (relative to untreated = 100.00) ([4]; DBG 12 nM, replicate 2): 46.50
cell viability (relative to untreated = 100.00) ([4]; DBG 12 nM, replicate 3): 45.48
cell viability (relative to untreated = 100.00) ([4]; NAC 4 mM + DBG 12 nM, mean of 3): 94.90
cell viability (relative to untreated = 100.00) ([4]; NAC 4 mM + DBG 12 nM, replicate 1): 97.37
cell viability (relative to untreated = 100.00) ([4]; NAC 4 mM + DBG 12 nM, replicate 2): 92.86
cell viability (relative to untreated = 100.00) ([4]; NAC 4 mM + DBG 12 nM, replicate 3): 94.46
anticancer activity of DBG after NAC pretreatment ([4]; NAC 4 mM, 3 h, DBG 48 h): decreased
cytotoxicity after NAC pretreatment ([4]; NAC 4 mM, DBG 12 nM): a little, if any, cytotoxicity only at 12 nM
PARP protein/actin ([5]; HCC827, DBG 3 nM, DBG 0 nM 0.88): 0.17
PARP protein Ratio ([5]; HCC827, DBG 3 nM): 0.20
PARP protein/actin ([5]; HCC827, DBG 6 nM, DBG 0 nM 0.88): 0.14
PARP protein Ratio ([5]; HCC827, DBG 6 nM): 0.16
PARP protein/actin ([5]; HCC827, DBG 12 nM, DBG 0 nM 0.88): 0.15
PARP protein Ratio ([5]; HCC827, DBG 12 nM): 0.17
PARP protein/actin ([5]; HCC827GR, DBG 3 nM, DBG 0 nM 0.78): 0.46
PARP protein Ratio ([5]; HCC827GR, DBG 3 nM): 0.59
PARP protein/actin ([5]; HCC827GR, DBG 6 nM, DBG 0 nM 0.78): 0.23
PARP protein Ratio ([5]; HCC827GR, DBG 6 nM): 0.29
PARP protein/actin ([5]; HCC827GR, DBG 12 nM, DBG 0 nM 0.78): 0.12
PARP protein Ratio ([5]; HCC827GR, DBG 12 nM): 0.16
level of whole PARP ([5]; HCC827 and HCC827GR, DBG): decreased
phosphorylation level of AKT [6]: decreased
ROS level ([7]; DBG 3 nM): 36.89%
ROS level ([7]; DBG 6 nM): 39.97%
ROS level ([7]; DBG 12 nM): 47.92%
G0/G1 distribution ([8]; DBG 3 nM, mean of 3 samples): 53.10
G2/M distribution ([8]; DBG 3 nM, mean of 3 samples): 37.67
S distribution ([8]; DBG 3 nM, mean of 3 samples): 9.23
G0/G1 distribution ([8]; DBG 3 nM, sample 1): 51.80
G2/M distribution ([8]; DBG 3 nM, sample 1): 39.10
S distribution ([8]; DBG 3 nM, sample 1): 9.10
G0/G1 distribution ([8]; DBG 3 nM, sample 2): 53.80
G2/M distribution ([8]; DBG 3 nM, sample 2): 36.60
S distribution ([8]; DBG 3 nM, sample 2): 9.60
G0/G1 distribution ([8]; DBG 3 nM, sample 3): 53.70
G2/M distribution ([8]; DBG 3 nM, sample 3): 37.30
S distribution ([8]; DBG 3 nM, sample 3): 9.00
G0/G1 distribution ([8]; DBG 6 nM, mean of 3 samples): 54.77
G2/M distribution ([8]; DBG 6 nM, mean of 3 samples): 36.33
S distribution ([8]; DBG 6 nM, mean of 3 samples): 8.90
G0/G1 distribution ([8]; DBG 6 nM, sample 1): 54.30
G2/M distribution ([8]; DBG 6 nM, sample 1): 36.50
S distribution ([8]; DBG 6 nM, sample 1): 9.20
G0/G1 distribution ([8]; DBG 6 nM, sample 2): 53.10
G2/M distribution ([8]; DBG 6 nM, sample 2): 37.80
S distribution ([8]; DBG 6 nM, sample 2): 9.10
G0/G1 distribution ([8]; DBG 6 nM, sample 3): 56.90
G2/M distribution ([8]; DBG 6 nM, sample 3): 34.70
S distribution ([8]; DBG 6 nM, sample 3): 8.40
G0/G1 distribution ([8]; DBG 12 nM, mean of 3 samples): 56.93
G2/M distribution ([8]; DBG 12 nM, mean of 3 samples): 34.27
S distribution ([8]; DBG 12 nM, mean of 3 samples): 8.77
G0/G1 distribution ([8]; DBG 12 nM, sample 1): 57.50
G2/M distribution ([8]; DBG 12 nM, sample 1): 33.40
S distribution ([8]; DBG 12 nM, sample 1): 9.00
G0/G1 distribution ([8]; DBG 12 nM, sample 2): 56.20
G2/M distribution ([8]; DBG 12 nM, sample 2): 35.10
S distribution ([8]; DBG 12 nM, sample 2): 8.70
G0/G1 distribution ([8]; DBG 12 nM, sample 3): 57.10
G2/M distribution ([8]; DBG 12 nM, sample 3): 34.30
S distribution ([8]; DBG 12 nM, sample 3): 8.60
increase in proportion of cells at G1 phase ([8]; concentration not given): 2.36%
